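The compound was tested at five concentrations on cells cultured in 96-well plates, with a 48-hour exposure period. GI50: concentration for 50% inhibition of growth.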 The source made the active and inactive calls. Cut-off read from the data, not from the text of the source: active = GI50 up to about 1.1 µM and inactive = higher.
How the values were obtained:
Test in all cases: DTP human tumour cell line panel, 48 h
[1] = test system: HOP-62
[2] = test system: NCI-H23
[3] = test system: PC-3
[4] = test system: HT-29
[5] = test system: MDA-MB-435
[6] = test system: SR
[7] = test system: EKVX
[8] = test system: RPMI-8226
[9] = test system: OVCAR-4
[10] = test system: UACC-257
[11] = test system: HCT-15
[12] = test system: KM12
[13] = test system: CCRF-CEM
[14] = test system: LOX IMVI
[15] = test system: SK-MEL-2
[16] = test system: SF-295
[17] = test system: MDA-N
[18] = test system: NCI-H460
[19] = test system: RXF 393
[20] = test system: NCI-H522
[21] = test system: T47D
[22] = test system: Malme-3M
[23] = test system: MCF7
[24] = test system: OVCAR-8
[25] = test system: SK-OV-3
[26] = test system: SW-620
[27] = test system: UO-31
[28] = test system: MDA-MB-231
[29] = test system: SF-268
[30] = test system: K562
[31] = test system: ACHN
[32] = test system: HL-60
[33] = test system: SNB-19
[34] = test system: Hs-578T
[35] = test system: SK-MEL-5
[36] = test system: A549
[37] = test system: SK-MEL-28
[38] = test system: MOLT-4
[39] = test system: SNB-75
[40] = test system: M14
[41] = test system: OVCAR-3
[42] = test system: TK-10
[43] = test system: HCC 2998
[44] = test system: U-251
[45] = test system: CAKI-1
[46] = test system: NCI-H226
[47] = test system: A498
[48] = test system: DU-145
[49] = test system: UACC-62
[50] = test system: SF-539
[51] = test system: NCI/ADR-RES
[52] = test system: HOP-92
[53] = test system: COLO 205
[54] = test system: IGROV-1
[55] = test system: SN12C
[56] = test system: HCT-116
[57] = test system: 786-0
[58] = test system: OVCAR-5

## COc1ccc([C@H]2C=[N+]([O-])O[C@H](OC3CCCC3)[C@@H]2OC(C)=O)cc1OC
[1]
  GI50: 72.1 µM (inactive)
[2]
  GI50: 25.6 µM (inactive)
[3]
  GI50: 44.8 µM (inactive)
[4]
  GI50: 20.7 µM (inactive)
[5]
  GI50: 25.4 µM (inactive)
[6]
  GI50: 41.8 µM (inactive)
[7]
  GI50: 22.3 µM (inactive)
[8]
  GI50: 23.5 µM (inactive)
[9]
  GI50: 33.6 µM (inactive)
[10]
  GI50: 19.7 µM (inactive)
[11]
  GI50: 29.2 µM
[12]
  GI50: 26.4 µM (inactive)
[13]
  GI50: 0.098 µM (active)
[14]
  GI50: 15.4 µM (inactive)
[15]
  GI50: 69.3 µM (inactive)
[16]
  GI50: > 100 µM (inactive)
[17]
  GI50: 37.8 µM (inactive)
[18]
  GI50: 43.9 µM (inactive)
[19]
  GI50: 13.3 µM (inactive)
[20]
  GI50: 5.66 µM (inactive)
[21]
  GI50: 16.1 µM (inactive)
[22]
  GI50: 25.9 µM (inactive)
[23]
  GI50: 22.3 µM (inactive)
[24]
  GI50: 20.7 µM (inactive)
[25]
  GI50: > 100 µM (inactive)
[26]
  GI50: 19.8 µM (inactive)
[27]
  GI50: 18.7 µM (inactive)
[28]
  GI50: 32.7 µM (inactive)
[29]
  GI50: 33.7 µM (inactive)
[30]
  GI50: 39.3 µM (inactive)
[31]
  GI50: 22.2 µM (inactive)
[32]
  GI50: 18.5 µM (inactive)
[33]
  GI50: > 100 µM (inactive)
[34]
  GI50: 29.9 µM (inactive)
[35]
  GI50: 13.1 µM (inactive)
[36]
  GI50: 29.4 µM (inactive)
[37]
  GI50: 20.8 µM (inactive)
[38]
  GI50: 32.6 µM (inactive)
[39]
  GI50: 28.4 µM (inactive)
[40]
  GI50: 21.4 µM (inactive)
[41]
  GI50: 26 µM (inactive)
[42]
  GI50: 23.1 µM (inactive)
[43]
  GI50: 13.2 µM (inactive)
[44]
  GI50: 35 µM (inactive)
[45]
  GI50: 14 µM (inactive)
[46]
  GI50: 47.6 µM (inactive)
[47]
  GI50: > 100 µM (inactive)
[48]
  GI50: 29.3 µM (inactive)
[49]
  GI50: 22.8 µM (inactive)
[50]
  GI50: 16.4 µM (inactive)
[51]
  GI50: 31.8 µM (inactive)
[52]
  GI50: 14.3 µM (inactive)
[53]
  GI50: 15.9 µM (inactive)
[54]
  GI50: 18.3 µM (inactive)

## Cc1ccc2c(c1)C(=O)C1(Cc3ccccc3C1=O)C2 (stereo not given)
[1]
  GI50: 47 µM (inactive)
[55]
  GI50: > 100 µM (inactive)
[2]
  GI50: > 100 µM (inactive)
[3]
  GI50: > 100 µM (inactive)
[4]
  GI50: > 100 µM (inactive)
[5]
  GI50: > 100 µM (inactive)
[6]
  GI50: > 100 µM (inactive)
[7]
  GI50: > 100 µM (inactive)
[8]
  GI50: > 100 µM (inactive)
[9]
  GI50: > 100 µM (inactive)
[10]
  GI50: > 100 µM (inactive)
[11]
  GI50: > 100 µM
[12]
  GI50: > 100 µM (inactive)
[13]
  GI50: > 100 µM (inactive)
[14]
  GI50: > 100 µM (inactive)
[16]
  GI50: > 100 µM (inactive)
[17]
  GI50: > 100 µM (inactive)
[18]
  GI50: > 100 µM (inactive)
[19]
  GI50: 47 µM (inactive)
[20]
  GI50: > 100 µM (inactive)
[21]
  GI50: > 100 µM (inactive)
[22]
  GI50: > 100 µM (inactive)
[23]
  GI50: > 100 µM (inactive)
[56]
  GI50: > 100 µM (inactive)
[24]
  GI50: > 100 µM (inactive)
[25]
  GI50: 31.2 µM (inactive)
[26]
  GI50: > 100 µM (inactive)
[27]
  GI50: 1.86 µM (inactive)
[28]
  GI50: > 100 µM (inactive)
[29]
  GI50: > 100 µM (inactive)
[30]
  GI50: > 100 µM (inactive)
[31]
  GI50: > 100 µM (inactive)
[32]
  GI50: > 100 µM (inactive)
[57]
  GI50: > 100 µM (inactive)
[33]
  GI50: > 100 µM (inactive)
[34]
  GI50: > 100 µM (inactive)
[35]
  GI50: > 100 µM (inactive)
[36]
  GI50: > 100 µM (inactive)
[37]
  GI50: > 100 µM (inactive)
[38]
  GI50: > 100 µM (inactive)
[39]
  GI50: 67.1 µM (inactive)
[40]
  GI50: > 100 µM (inactive)
[41]
  GI50: > 100 µM (inactive)
[42]
  GI50: > 100 µM (inactive)
[43]
  GI50: > 100 µM (inactive)
[44]
  GI50: > 100 µM (inactive)
[46]
  GI50: > 100 µM (inactive)
[47]
  GI50: > 100 µM (inactive)
[48]
  GI50: > 100 µM (inactive)
[49]
  GI50: 28.9 µM (inactive)
[50]
  GI50: > 100 µM (inactive)
[51]
  GI50: > 100 µM (inactive)
[52]
  GI50: 30.1 µM (inactive)
[53]
  GI50: > 100 µM (inactive)
[58]
  GI50: > 100 µM (inactive)
[54]
  GI50: > 100 µM (inactive)

Source: ChEMBL document CHEMBL1201862, “PubChem BioAssay data set” (2004)
